# Data reported in paper PMC3388095, “Fluorophore Labeled Kinase Detects Ligands That Bind within the MAPK Insert of p38α Kinase” (PLoS ONE, 2012).
# Key:
# Assay in all cases: Kinase selectivity profile, 33P-ATP filter-binding assay
# Assay type in all cases: biochemical
# [1] = molecular target: CAMK1 (Homo sapiens, UniProt Q14012)
# Method: (§1) Figure 5 Kinase selectivity profile of 1b. Compound 1b was profiled against a selected panel of 95 different kinases at a concentration of 10 µM employing a radioactive (^33P-ATP) filter-binding assay (National Centre for Protein Kinase Profiling, Dundee). The numbers represent the remaining kinase activity in %. […] TEXT PRINTED IN THE PICTURE: no label printed: Aurora B: 53; MNK2: 67; MINK1: 69; HER4: 71; MKK1: 75; PKBβ: 75; PHK: 76; PIM2: 76; PIM3: 77; CHK2: 78; PKD1: 79; TBK1: 79; PAK4: 80; Lck: 80; GSK3β: 80; IGF-1R: 81; p38δ MAPK: 81; PIM1: 82; SRPK1: 83; SmMLCK: 83; MAPKAP-K3: 84; EPH A2: 85; MELK: 85; CK2: 85; CK1: 86; CAMK1: 86; PLK1: 87; MST2: 87; IR-HIS: 87; BTK: 87; HIPK1: 87; p38α MAPK: 88; DYRK2: 88; JNK3: 88; PAK5: 88; IKKε: 89; p38β MAPK: 89; NUAK1: 90; PAK2: 90; MNK1: 91; ERK8: 91; GCK: 91; PRAK: 91; MLK1: 92; SGK1: 92; PAK6: 92; TTK: 92; BRSK2: 92; MARK4: 93; CHK1: 93; RIPK2: 94; CDK2-Cyclin A: 94; JNK1: 94; AMPK: 94; VEG-FR: 95; DYRK1A: 95; CAMKKβ: 95; PKCα: 96; S6K1: 96; MSK1: 96; PKCz: 96; YES1: 96; RSK1: 97; IRAK4: 97; DYRK3: 97; IKKβ: 97; ERK2: 98; MLK3: 98; RSK2: 98; LKB1: 98; MAPKAP-K2: 98; ERK1: 99; FGF-R1: 99; SYK: 99; MST4: 99; MARK3: 99; MARK2: 100; PDK1: 100; JNK2: 101; HIPK2: 101; BRSK1: 102; EF2K: 102; PRK2: 103; Aurora A: 104; IRR: 104; CSK: 104; PKA: 104; NEK6: 105; p38γ MAPK: 105; Src: 107; PKBα: 109; ROCK 2: 109; EPH-B3: 112; HIPK3: 115; NEK2α: 119 DOUBTS OF THE COPYIST ABOUT THIS PICTURE: The picture prints no compound label and no measure or unit for the numbers; only the colour scale 'Inhibition weak/strong' is printed. / PKCz: the last letter may be z or ζ / NEK2α: the last letter may be a or α / IKKε: the last letter may be ε or e
# [2] = molecular target: MLK3 (Homo sapiens, UniProt Q16584)
# Method: as §1
# [3] = molecular target: SmMLCK (Homo sapiens, UniProt Q15746)
# Method: as §1
# [4] = molecular target: CHK1 (Homo sapiens, UniProt O14757)
# Method: as §1
# [5] = molecular target: MNK1 (Homo sapiens, UniProt Q9BUB5)
# Method: as §1
# [6] = molecular target: IKKβ (Homo sapiens, UniProt O14920)
# Method: as §1
# [7] = molecular target: EPH A2 (Homo sapiens, UniProt P29317)
# Method: as §1
# [8] = molecular target: IRAK4 (Homo sapiens, UniProt Q9NWZ3)
# Method: as §1
# [9] = molecular target: Lck (Homo sapiens, UniProt P06239)
# Method: as §1
# [10] = molecular target: DYRK3 (Homo sapiens, UniProt O43781)
# Method: as §1
# [11] = molecular target: PAK2 (Homo sapiens, UniProt Q13177)
# Method: as §1
# [12] = molecular target: MKK1 (Homo sapiens, UniProt Q02750)
# Method: as §1
# [13] = molecular target: MST4 (Homo sapiens, UniProt Q9P289)
# Method: as §1
# [14] = molecular target: VEG-FR (Homo sapiens, UniProt P17948)
# Method: as §1
# [15] = molecular target: CK2 (Homo sapiens, UniProt P68400)
# Method: as §1
# [16] = molecular target: JNK2 (Homo sapiens, UniProt P45984)
# Method: as §1
# [17] = molecular target: GCK (Homo sapiens, UniProt Q12851)
# Method: as §1
# [18] = molecular target: Aurora B (Homo sapiens, UniProt Q96GD4)
# Method: as §1
# [19] = molecular target: GSK3β (Homo sapiens, UniProt P49841)
# Method: as §1
# [20] = molecular target: PKA (Homo sapiens, UniProt P17612)
# Method: as §1
# [21] = molecular target: RIPK2 (Homo sapiens, UniProt O43353)
# Method: as §1
# [22] = molecular target: MLK1 (Homo sapiens, UniProt P80192)
# Method: as §1
# [23] = molecular target: NEK6 (Homo sapiens, UniProt Q9HC98)
# Method: as §1
# [24] = molecular target: BRSK1 (Homo sapiens, UniProt Q8TDC3)
# Method: as §1
# [25] = molecular target: NUAK1 (Homo sapiens, UniProt O60285)
# Method: as §1
# [26] = molecular target: RSK2 (Homo sapiens, UniProt P51812)
# Method: as §1
# [27] = molecular target: S6K1 (Homo sapiens, UniProt P23443)
# Method: as §1
# VEG-FR, sequence (P17948 27-1338): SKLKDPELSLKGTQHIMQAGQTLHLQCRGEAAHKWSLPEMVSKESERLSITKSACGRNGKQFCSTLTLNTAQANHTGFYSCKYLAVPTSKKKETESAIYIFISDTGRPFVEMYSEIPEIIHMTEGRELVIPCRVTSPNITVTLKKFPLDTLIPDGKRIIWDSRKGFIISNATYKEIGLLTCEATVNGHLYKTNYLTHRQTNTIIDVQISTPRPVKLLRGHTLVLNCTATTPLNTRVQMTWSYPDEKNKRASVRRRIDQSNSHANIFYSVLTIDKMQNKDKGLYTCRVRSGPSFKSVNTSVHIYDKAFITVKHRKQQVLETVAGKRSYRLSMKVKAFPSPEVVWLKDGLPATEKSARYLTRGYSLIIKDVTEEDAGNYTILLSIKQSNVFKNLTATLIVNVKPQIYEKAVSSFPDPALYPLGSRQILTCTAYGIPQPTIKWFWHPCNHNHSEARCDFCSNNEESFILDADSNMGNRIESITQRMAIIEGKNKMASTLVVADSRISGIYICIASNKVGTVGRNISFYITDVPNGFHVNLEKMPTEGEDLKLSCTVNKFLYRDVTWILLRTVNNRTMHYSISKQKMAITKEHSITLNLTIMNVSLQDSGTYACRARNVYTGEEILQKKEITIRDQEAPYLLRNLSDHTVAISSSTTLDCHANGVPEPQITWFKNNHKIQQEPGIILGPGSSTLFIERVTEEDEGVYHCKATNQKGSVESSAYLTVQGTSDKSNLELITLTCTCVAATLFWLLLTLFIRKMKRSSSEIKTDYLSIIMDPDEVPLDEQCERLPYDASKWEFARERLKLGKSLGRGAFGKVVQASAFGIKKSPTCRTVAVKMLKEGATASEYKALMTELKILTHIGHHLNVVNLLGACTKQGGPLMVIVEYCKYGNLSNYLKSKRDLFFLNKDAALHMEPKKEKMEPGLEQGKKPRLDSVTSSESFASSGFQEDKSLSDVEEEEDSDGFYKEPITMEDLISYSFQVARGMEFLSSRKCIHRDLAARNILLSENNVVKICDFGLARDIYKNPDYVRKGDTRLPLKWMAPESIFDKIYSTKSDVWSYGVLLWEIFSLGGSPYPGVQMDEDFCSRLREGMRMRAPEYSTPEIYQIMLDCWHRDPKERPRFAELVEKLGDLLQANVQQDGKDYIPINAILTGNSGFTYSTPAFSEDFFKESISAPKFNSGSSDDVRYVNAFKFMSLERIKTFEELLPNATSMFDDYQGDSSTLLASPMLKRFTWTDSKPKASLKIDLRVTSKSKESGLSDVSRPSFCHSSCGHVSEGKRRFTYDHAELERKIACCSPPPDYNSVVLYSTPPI
# SmMLCK, sequence (Q15746 923-1914): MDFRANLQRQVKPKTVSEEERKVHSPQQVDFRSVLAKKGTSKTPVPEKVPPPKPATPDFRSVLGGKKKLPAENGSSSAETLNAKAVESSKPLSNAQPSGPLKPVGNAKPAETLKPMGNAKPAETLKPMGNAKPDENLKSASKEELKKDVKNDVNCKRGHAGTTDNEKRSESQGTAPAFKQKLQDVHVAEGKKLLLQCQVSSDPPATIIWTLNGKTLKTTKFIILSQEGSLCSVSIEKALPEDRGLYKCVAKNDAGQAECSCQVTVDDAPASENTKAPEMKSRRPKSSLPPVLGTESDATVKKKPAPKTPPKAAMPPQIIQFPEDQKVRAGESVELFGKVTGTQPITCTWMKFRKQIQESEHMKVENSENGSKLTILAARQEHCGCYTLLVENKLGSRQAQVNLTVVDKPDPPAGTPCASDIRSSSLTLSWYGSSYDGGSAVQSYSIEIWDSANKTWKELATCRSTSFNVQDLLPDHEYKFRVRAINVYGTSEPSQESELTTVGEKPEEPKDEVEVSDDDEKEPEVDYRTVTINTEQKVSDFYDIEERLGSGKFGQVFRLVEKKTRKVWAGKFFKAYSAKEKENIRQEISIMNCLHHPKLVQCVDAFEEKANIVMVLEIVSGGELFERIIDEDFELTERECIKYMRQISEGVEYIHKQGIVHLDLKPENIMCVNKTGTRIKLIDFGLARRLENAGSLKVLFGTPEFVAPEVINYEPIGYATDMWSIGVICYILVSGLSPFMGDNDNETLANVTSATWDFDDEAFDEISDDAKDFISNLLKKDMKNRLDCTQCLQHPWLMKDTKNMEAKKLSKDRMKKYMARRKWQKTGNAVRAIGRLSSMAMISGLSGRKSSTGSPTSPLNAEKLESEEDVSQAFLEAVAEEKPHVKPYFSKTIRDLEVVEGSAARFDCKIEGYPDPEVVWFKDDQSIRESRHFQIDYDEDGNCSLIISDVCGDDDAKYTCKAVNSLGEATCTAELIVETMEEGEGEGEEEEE
# PAK2, sequence (Q13177 whole entry): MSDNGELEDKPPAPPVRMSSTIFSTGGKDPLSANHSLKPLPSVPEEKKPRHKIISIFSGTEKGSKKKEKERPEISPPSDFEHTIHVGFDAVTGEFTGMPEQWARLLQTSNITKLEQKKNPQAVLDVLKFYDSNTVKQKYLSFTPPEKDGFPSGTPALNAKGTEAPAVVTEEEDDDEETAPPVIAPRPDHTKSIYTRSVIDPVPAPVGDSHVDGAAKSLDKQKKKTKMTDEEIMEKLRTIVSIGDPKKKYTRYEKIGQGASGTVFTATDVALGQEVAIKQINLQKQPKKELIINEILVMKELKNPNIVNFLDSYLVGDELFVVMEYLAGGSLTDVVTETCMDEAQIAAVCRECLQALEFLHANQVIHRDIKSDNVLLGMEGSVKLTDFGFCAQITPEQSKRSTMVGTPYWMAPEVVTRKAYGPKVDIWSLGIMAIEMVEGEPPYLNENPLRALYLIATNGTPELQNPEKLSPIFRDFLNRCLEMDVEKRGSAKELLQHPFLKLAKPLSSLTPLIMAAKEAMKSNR
# DYRK3, sequence (O43781 whole entry): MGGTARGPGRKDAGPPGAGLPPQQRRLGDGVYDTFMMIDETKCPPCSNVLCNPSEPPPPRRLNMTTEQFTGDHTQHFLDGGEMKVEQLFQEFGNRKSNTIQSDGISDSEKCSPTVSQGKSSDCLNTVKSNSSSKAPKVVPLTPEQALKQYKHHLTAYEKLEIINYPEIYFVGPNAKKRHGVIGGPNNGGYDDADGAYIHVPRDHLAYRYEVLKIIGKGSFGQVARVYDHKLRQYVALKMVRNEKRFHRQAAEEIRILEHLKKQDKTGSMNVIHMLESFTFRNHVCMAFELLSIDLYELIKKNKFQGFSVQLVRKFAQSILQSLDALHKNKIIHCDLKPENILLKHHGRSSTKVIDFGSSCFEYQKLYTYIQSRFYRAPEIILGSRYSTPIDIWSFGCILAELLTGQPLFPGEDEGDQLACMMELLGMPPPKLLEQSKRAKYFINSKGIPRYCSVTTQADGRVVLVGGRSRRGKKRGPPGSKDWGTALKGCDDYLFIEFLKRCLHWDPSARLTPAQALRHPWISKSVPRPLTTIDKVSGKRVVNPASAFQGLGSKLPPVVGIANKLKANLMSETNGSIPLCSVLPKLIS
# Lck, sequence (P06239 whole entry): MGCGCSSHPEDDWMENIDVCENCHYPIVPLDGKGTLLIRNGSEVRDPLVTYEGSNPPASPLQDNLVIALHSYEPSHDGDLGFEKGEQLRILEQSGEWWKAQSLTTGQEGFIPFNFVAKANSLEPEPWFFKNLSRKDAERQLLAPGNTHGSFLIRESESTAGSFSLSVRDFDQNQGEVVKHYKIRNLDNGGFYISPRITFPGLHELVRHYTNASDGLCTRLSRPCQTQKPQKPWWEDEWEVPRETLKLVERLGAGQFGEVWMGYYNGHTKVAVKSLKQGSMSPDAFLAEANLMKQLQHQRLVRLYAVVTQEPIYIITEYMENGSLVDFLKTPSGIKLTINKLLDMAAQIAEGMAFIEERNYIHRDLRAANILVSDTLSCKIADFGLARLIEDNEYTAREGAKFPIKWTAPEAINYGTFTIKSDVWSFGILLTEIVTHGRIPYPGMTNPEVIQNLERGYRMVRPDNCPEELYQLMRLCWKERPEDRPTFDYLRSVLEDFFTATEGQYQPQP
# S6K1, sequence (P23443 whole entry): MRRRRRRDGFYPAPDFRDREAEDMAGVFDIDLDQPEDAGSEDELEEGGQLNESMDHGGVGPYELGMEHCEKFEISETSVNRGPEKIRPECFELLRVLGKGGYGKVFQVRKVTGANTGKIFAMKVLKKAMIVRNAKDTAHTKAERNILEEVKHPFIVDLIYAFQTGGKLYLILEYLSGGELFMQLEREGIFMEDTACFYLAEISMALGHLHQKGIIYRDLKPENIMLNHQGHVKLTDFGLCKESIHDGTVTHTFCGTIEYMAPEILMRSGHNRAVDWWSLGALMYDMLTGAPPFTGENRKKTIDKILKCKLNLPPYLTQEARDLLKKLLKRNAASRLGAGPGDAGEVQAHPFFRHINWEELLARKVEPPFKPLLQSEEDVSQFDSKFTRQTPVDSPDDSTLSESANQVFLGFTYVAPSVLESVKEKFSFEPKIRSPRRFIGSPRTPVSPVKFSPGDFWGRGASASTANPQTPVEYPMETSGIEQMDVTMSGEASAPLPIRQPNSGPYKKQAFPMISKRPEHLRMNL
# NEK6, sequence (Q9HC98 whole entry): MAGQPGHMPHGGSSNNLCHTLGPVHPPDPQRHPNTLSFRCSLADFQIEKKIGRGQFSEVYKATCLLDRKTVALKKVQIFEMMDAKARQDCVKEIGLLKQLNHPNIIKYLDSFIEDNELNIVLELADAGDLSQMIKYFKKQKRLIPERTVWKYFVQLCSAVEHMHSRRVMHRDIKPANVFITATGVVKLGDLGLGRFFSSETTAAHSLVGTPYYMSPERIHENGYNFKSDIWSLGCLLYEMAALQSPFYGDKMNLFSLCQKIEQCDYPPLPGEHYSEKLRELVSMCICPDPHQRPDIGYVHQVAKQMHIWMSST
compound,measurement,setting,value
"Nc1ccc2c(NC3CC3)nc(-c3ccccc3)nc2c1 [1b, N^4-Cyclopropyl-2-phenyl-4,7-quinazolinediamine]",remaining activity at 10 µM,[1],86%
same,remaining activity at 10 µM,[2],98%
same,remaining activity at 10 µM,[3],83%
same,remaining activity at 10 µM,[4],93%
same,remaining activity at 10 µM,[5],91%
same,remaining activity at 10 µM,[6],97%
same,remaining activity at 10 µM,[7],85%
same,remaining activity at 10 µM,[8],97%
same,remaining activity at 10 µM,[9],80%
same,remaining activity at 10 µM,[10],97%
same,remaining activity at 10 µM,[11],90%
same,remaining activity at 10 µM,[12],75%
same,remaining activity at 10 µM,[13],99%
same,remaining activity at 10 µM,[14],95%
same,remaining activity at 10 µM,[15],85%
same,remaining activity at 10 µM,[16],101%
same,remaining activity at 10 µM,[17],91%
same,remaining activity at 10 µM,[18],53%
same,remaining activity at 10 µM,[19],80%
same,remaining activity at 10 µM,[20],104%
same,remaining activity at 10 µM,[21],94%
same,remaining activity at 10 µM,[22],92%
same,remaining activity at 10 µM,[23],105%
same,remaining activity at 10 µM,[24],102%
same,remaining activity at 10 µM,[25],90%
same,remaining activity at 10 µM,[26],98%
same,remaining activity at 10 µM,[27],96%
